Each block holds one molecule with its values, some of them ahead of it.
What was measured:
Aphis craccivora = assay: Efficacy test against Aphis craccivora (spray on black-eyed pea plants); format: in vivo; conditions: in Vigna unguiculata, 96 h, sprayed on black-eyed pea plants, nymphs, 4 days after spraying, read-out: insect mortality rate
Protocol: (§1) 5 parts of the compound of the present invention, 93.6 parts of dimethylformamide and 1.4 parts of polyoxyethylene alkyl aryl ether were mixed and dissolved to prepare Emulsion (I) including 5% of an active ingredient.
(§2) An insect mortality rate was calculated by the numerical equation shown below.
(§3) Insect mortality rate (%)={(Number of dead insects)/(Number of sample insects)}×100
Black-eyed pea plants were raised in No. 3 pots and the primary leaves were inoculated with nymphs of Aphis craccivora. Emulsion (I) was diluted with water so that the concentration of the compound of the present invention was 125 ppm. Subsequently, the aforementioned diluted liquid was sprayed on the black-eyed pea plants on which the nymphs of Aphis craccivora were parasitic. The aforementioned black-eyed pea plants were then placed in a thermostatic chamber with a temperature of 25° C. and humidity of 60%. Mortality was investigated 4 days after spraying was carried out, and the insect mortality rate of Aphis craccivora was calculated. The test was performed twice.

Plutella xylostella = assay: Efficacy test against Plutella xylostella (cabbage leaf dip); format: in vivo; conditions: foliar, 72 h, cabbage leaves soaked 30 seconds, second-instar larvae, 3 days after inoculation, read-out: insect mortality rate
Protocol: as §1, §2, §3
Emulsion (I) was diluted with water so that the concentration of the compound of the present invention was 125 ppm. Cabbage leaves were soaked in the diluted liquid for 30 seconds. Subsequently, the cabbage leaves were put on Petri dishes, followed by inoculating 5 second-instar larvae of Plutella xylostella. The Petri dishes were placed in a thermostatic chamber at a temperature of 25° C. and humidity of 60%. Mortality was investigated 3 days after inoculation, and the insect mortality rate was calculated. The test was performed twice.

Phyllotreta striolata = assay: Efficacy test against Phyllotreta striolata (spray on bok-choi seedlings); format: in vivo; conditions: 168 h, sprayed on bok-choi seedlings, adults, 7 days after inoculation, read-out: insect mortality rate
Protocol: as §1, §2, §3
Emulsion (I) was diluted with water so that the concentration of the compound of the present invention was 125 ppm, to prepare a diluted liquid for testing. The aforementioned diluted liquid was sprayed on bok-choi seedlings (7th major leaf-development period) planted in No. 3 pots. After the bok-choi seedlings were subjected to air-drying, the seedlings were placed in plastic cups, followed by inoculating 10 adult Phyllotreta striolata. The plastic cups were stored in a thermostatic chamber at a temperature of 25° C. and humidity of 65%. Mortality was investigated 7 days after inoculation, and the insect mortality rate was calculated. The test was performed twice.

Nilaparvata lugens = assay: Efficacy test against Nilaparvata lugens (rice seedling dip); format: in vivo; conditions: 168 h, rice seedlings soaked 30 seconds, second-instar larvae, 7 days after inoculation, read-out: insect mortality rate
Protocol: as §1, §2, §3
Emulsion (I) was diluted with water so that the concentration of the compound of the present invention was 125 ppm. Rice seedlings were soaked in the diluted liquid for 30 seconds, and subjected to air-drying. Subsequently, the rice seedlings were placed in plastic cases, followed by inoculating 5 second-instar larvae of Nilaparvata lugens. The plastic cases were placed in a thermostatic chamber at a temperature of 25° C. and humidity of 65%. Mortality was investigated 7 days after inoculation, and the insect mortality rate was calculated. The test was performed twice.

Mythimna separata = assay: Efficacy test against Mythimna separata (treated artificial feed); format: in vivo; conditions: 1 μl of Emulsion (I) (5% active ingredient) in 0.8 g artificial feed; second-instar larvae; 25° C.; fifth day
Protocol: as §1
For the control, Emulsion (II) was prepared by mixing and dissolving 93.6 parts of dimethylformamide and 1.4 parts of polyoxyethylene alkyl aryl ether.
as §2, §3
0.8 g of a commercially available artificial feed (Insecta LFS, manufactured by Nosan Corporation) and 1 μl of Emulsion (I) were mixed thoroughly. Thereby, a test feed was obtained.
The test feed was placed in an amount of 0.2 g in each of the treatment areas of a plastic test container (volume: 1.4 ml). Subsequently, two second-instar larvae of Mythimna separata were inoculated into each treatment area, and the test container was sealed with a plastic lid in order to prevent the larvae from escaping. The sealed container was placed in a thermostatic chamber at 25° C., and the insect mortality rate and the amount of feed consumed were determined on the fifth day. The test was performed twice.
As the control areas, the insect mortality rate and the amount of feed consumed were determined in the same manner as that described in Test Example 1, with the exception of replacing Emulsion (I) with Emulsion (II).

SMILES: CCS(=O)(=O)c1cnc(-c2ncccn2)nc1-c1nc2cc(C(F)(F)F)cnc2n1C [A-2, 2-(5-(ethylsulfonyl)-[2,2′-bipyrimidin]-4-yl)-3-methyl-6-(trifluoromethyl)-3H-imidazo[4,5-b]pyridine]
- mortality at 125 ppm (Aphis craccivora): ≥ 80%
- mortality at 125 ppm (Plutella xylostella): ≥ 80%
- mortality at 125 ppm (Phyllotreta striolata): ≥ 80%
- mortality at 125 ppm (Nilaparvata lugens): ≥ 80%
- insect mortality rate or amount of feed consumed relative to control area (Mythimna separata): mortality rate against Mythimna separata was 100%, or the amount of feed consumed was 10% or less

SMILES: CCS(=O)(=O)c1cnc(-c2ncn(C)n2)nc1-c1nc2cc(C(F)(F)F)cnc2n1C [A-5]
- insect mortality rate or amount of feed consumed relative to control area (Mythimna separata): mortality rate against Mythimna separata was 100%, or the amount of feed consumed was 10% or less

- melting point: 223 to 225 °C
SMILES: CCS(=O)(=O)c1cnc(-c2ncccn2)nc1-c1nc2cc(SC(F)(F)F)ccc2o1 [A-7, 2-(5-(ethylsulfonyl)-[2,2′-bipyrimidin]-4-yl)-5-((trifluoromethyl)thio)benzo[d]oxazole]

- melting point: 192 to 195 °C
SMILES: CCS(=O)(=O)c1cnc(-c2ncccn2)nc1-c1nc2cc([S+]([O-])C(F)(F)F)ccc2o1 (stereo not drawn) [A-8, 2-(5-(ethylsulfonyl)-[2,2′-bipyrimidin]-4-yl)-5-((trifluoromethyl)sulfinyl)benzo[d]oxazole]

- melting point: 118 to 124 °C
SMILES: CCS(=O)(=O)c1cnc(-c2ncccn2)nc1-c1nc2cc(S(=O)(=O)C(F)(F)F)ccc2o1 [A-9, 2-(5-(ethylsulfonyl)-[2,2′-bipyrimidin]-4-yl)-5-((trifluoromethyl)sulfonyl)benzo[d]oxazole]

SMILES: CCS(=O)(=O)c1cnc(N)nc1-c1nc2cc(SC(F)(F)F)ccc2o1 [A-10]
- insect mortality rate or amount of feed consumed relative to control area (Mythimna separata): mortality rate against Mythimna separata was 100%, or the amount of feed consumed was 10% or less

SMILES: CCS(=O)(=O)c1cnc(-n2ncnc2N)nc1-c1nc2cc(C(F)(F)F)cnc2n1C [A-12, 1-(5-(ethylsulfonyl)-4-(3-methyl-6-(trifluoromethyl)-3H-imidazo[4,5-b]pyridin-2-yl)pyrimidin-2-yl)-1H-1,2,4-triazol-5-amine]
- mortality at 125 ppm (Plutella xylostella): ≥ 80%
- mortality at 125 ppm (Phyllotreta striolata): ≥ 80%
- mortality at 125 ppm (Nilaparvata lugens): ≥ 80%
- insect mortality rate or amount of feed consumed relative to control area (Mythimna separata): mortality rate against Mythimna separata was 100%, or the amount of feed consumed was 10% or less

SMILES: CCS(=O)(=O)c1cnc(N)nc1-c1nc2cc(C(F)(F)F)cnc2n1C [A-13]
- insect mortality rate or amount of feed consumed relative to control area (Mythimna separata): mortality rate against Mythimna separata was 100%, or the amount of feed consumed was 10% or less

SMILES: CCS(=O)(=O)c1cnc(NC)nc1-c1nc2cc(C(F)(F)F)cnc2n1C [A-16]
- insect mortality rate or amount of feed consumed relative to control area (Mythimna separata): mortality rate against Mythimna separata was 100%, or the amount of feed consumed was 10% or less

SMILES: CCS(=O)(=O)c1cnc(N(C)C)nc1-c1nc2cc(C(F)(F)F)cnc2n1C [A-17]
- insect mortality rate or amount of feed consumed relative to control area (Mythimna separata): mortality rate against Mythimna separata was 100%, or the amount of feed consumed was 10% or less

SMILES: CCS(=O)(=O)c1cnc(-n2cccn2)nc1-c1nc2cc(C(F)(F)F)cnc2n1C [A-20]
- insect mortality rate or amount of feed consumed relative to control area (Mythimna separata): mortality rate against Mythimna separata was 100%, or the amount of feed consumed was 10% or less

SMILES: CCS(=O)(=O)c1cnc(OC)nc1-c1nc2cc(C(F)(F)F)cnc2n1C [A-23]
- insect mortality rate or amount of feed consumed relative to control area (Mythimna separata): mortality rate against Mythimna separata was 100%, or the amount of feed consumed was 10% or less

- melting point: 227 to 229 °C
SMILES: CCS(=O)(=O)c1cnc(NN)nc1-c1nc2cc(C(F)(F)F)cnc2n1C [A-24, 2-(5-(ethylsulfonyl)-2-hydrazineylpyrimidin-4-yl)-3-methyl-6-(trifluoromethyl)-3H-imidazo[4,5-b]pyridine]

SMILES: CCS(=O)(=O)c1cnc(-n2ccc(N)n2)nc1-c1nc2cc(C(F)(F)F)cnc2n1C [A-25]
- insect mortality rate or amount of feed consumed relative to control area (Mythimna separata): mortality rate against Mythimna separata was 100%, or the amount of feed consumed was 10% or less

SMILES: CCOC(=O)c1cnn(-c2ncc(S(=O)(=O)CC)c(-c3nc4cc(C(F)(F)F)cnc4n3C)n2)c1N [A-26, ethyl 5-amino-1-(5-(ethylsulfonyl)-4-(3-methyl-6-(trifluoromethyl)-3H-imidazo[4,5-b]pyridin-2-yl)pyrimidin-2-yl)-1H-pyrazole-4-carboxylate]
- mortality at 125 ppm (Aphis craccivora): ≥ 80%
- mortality at 125 ppm (Plutella xylostella): ≥ 80%
- mortality at 125 ppm (Phyllotreta striolata): ≥ 80%
- insect mortality rate or amount of feed consumed relative to control area (Mythimna separata): mortality rate against Mythimna separata was 100%, or the amount of feed consumed was 10% or less

- melting point: 247 to 249 °C
SMILES: CCS(=O)(=O)c1cnc(-n2nccc2N)nc1-c1nc2cc(C(F)(F)F)cnc2n1C [A-27, 1-(5-(ethylsulfonyl)-4-(3-methyl-6-(trifluoromethyl)-3H-imidazo[4,5-b]pyridin-2-yl)pyrimidin-2-yl)-1H-pyrazol-5-amine]

SMILES: CCS(=O)(=O)c1cnc(NCCN)nc1-c1nc2cc(C(F)(F)F)cnc2n1C [A-28]
- insect mortality rate or amount of feed consumed relative to control area (Mythimna separata): mortality rate against Mythimna separata was 100%, or the amount of feed consumed was 10% or less

Source: patent publication US20210002263A1, “HETEROARYLPYRIMIDINE COMPOUND AND FORMULATION FOR CONTROLLING HARMFUL ORGANISMS” (Nippon Soda Co., Ltd., priority 2018, published 2021)
